Literature values, collected in patent US20220001014A1 (priority 2020, published 2022).
Counter-ions that a name gives are not always drawn.

Tests used:
[1] = in vivo
[2] = target: Neprilysin (Homo sapiens, UniProt P08473)
[3] = target: ACE (Homo sapiens, UniProt P12821)
[4] = tested on: SARS-COV2; details: recent in vitro studies
[5] = tested on: SARS-CoV; details: mice; dosed at concentrations similar to the clinically achievable concentration in humans; reduced from 100%
[6] = tested on: SARS-CoV; details: lung epithelial cell lines
[7] = injection; LPS-induced acute lung injury
[8] = target: T1, Bradykinin B2 (Homo sapiens, UniProt P30411); details: 18 μg/kg/h iv for 6 h; sodium-deplete normotensive and hypertensive subjects
T1 construct: host or cells: subjects in vivo (endogenous receptor)
T1 sequence (P30411 1-391): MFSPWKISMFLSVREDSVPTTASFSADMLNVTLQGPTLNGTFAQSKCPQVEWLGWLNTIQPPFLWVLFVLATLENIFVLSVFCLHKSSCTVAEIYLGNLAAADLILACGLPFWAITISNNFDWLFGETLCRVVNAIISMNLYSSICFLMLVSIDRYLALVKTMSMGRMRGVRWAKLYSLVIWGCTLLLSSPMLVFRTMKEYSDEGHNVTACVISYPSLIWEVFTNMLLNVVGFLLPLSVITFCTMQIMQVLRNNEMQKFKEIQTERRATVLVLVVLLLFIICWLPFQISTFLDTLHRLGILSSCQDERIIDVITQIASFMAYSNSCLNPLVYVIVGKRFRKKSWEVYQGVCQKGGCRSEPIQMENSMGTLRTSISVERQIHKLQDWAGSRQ

Chain of ACE (P12821 30-1306, species assumed): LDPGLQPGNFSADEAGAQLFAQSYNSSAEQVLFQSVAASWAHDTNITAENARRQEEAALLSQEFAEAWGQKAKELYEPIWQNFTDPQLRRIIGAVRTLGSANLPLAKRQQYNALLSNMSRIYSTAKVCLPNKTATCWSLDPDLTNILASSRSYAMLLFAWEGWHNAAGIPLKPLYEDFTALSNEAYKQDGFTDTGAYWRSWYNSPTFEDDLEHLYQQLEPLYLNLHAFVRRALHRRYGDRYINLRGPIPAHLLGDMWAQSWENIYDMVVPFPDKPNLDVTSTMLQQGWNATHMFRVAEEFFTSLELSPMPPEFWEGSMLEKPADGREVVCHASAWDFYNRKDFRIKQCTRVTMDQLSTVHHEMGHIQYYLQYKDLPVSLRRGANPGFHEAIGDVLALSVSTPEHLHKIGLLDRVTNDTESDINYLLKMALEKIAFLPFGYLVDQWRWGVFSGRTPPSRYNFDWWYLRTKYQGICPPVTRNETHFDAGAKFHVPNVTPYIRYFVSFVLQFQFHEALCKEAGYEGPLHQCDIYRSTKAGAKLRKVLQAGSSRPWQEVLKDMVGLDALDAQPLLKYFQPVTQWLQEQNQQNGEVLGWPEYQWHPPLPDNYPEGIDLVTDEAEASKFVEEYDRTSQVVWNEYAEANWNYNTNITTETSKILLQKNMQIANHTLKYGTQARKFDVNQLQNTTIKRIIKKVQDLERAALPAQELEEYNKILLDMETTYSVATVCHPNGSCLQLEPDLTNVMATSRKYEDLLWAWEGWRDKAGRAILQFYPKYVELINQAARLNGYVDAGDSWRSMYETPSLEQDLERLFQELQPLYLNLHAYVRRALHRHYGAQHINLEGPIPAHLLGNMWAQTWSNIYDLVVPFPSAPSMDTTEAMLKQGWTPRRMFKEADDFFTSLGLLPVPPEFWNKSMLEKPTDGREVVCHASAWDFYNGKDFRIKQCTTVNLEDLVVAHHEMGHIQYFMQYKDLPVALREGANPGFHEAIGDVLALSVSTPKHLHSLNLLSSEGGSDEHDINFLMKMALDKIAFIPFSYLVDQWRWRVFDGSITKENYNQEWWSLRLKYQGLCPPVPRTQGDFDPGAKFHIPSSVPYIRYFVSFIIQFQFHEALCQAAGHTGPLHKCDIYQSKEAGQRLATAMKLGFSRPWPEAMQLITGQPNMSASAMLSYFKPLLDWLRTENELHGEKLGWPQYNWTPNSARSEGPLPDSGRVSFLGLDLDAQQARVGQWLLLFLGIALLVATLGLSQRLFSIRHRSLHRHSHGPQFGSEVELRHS
Chain of Neprilysin (P08473 whole entry, species assumed): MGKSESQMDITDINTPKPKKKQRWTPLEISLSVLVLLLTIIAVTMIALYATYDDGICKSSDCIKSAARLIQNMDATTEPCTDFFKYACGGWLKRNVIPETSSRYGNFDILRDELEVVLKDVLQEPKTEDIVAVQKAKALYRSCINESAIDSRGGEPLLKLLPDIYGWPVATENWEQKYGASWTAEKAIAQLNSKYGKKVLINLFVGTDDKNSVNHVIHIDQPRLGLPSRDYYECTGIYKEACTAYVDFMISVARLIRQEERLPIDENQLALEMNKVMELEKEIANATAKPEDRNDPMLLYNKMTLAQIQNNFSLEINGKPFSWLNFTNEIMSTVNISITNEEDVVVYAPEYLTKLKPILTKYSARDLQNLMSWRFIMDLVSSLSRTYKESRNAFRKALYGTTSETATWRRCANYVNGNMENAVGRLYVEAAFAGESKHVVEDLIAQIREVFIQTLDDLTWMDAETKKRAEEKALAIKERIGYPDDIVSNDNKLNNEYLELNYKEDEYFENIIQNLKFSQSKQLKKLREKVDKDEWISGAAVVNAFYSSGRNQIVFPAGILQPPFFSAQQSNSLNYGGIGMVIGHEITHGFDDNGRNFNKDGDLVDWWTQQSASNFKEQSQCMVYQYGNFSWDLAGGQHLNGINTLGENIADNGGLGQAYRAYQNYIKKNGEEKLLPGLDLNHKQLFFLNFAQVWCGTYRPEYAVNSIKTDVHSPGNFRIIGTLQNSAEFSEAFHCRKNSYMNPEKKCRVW

In the case of `Cn1c(=O)cc(N2CCC[C@@H](N)C2)n(Cc2ccccc2C#N)c1=O` [alogliptin], the joint pains [1] is given as “can cause severe joint pains”.
In the case of `N[C@@H](CC(=O)N1CCn2c(nnc2C(F)(F)F)C1)Cc1cc(F)c(F)cc1F` [sitagliptin], the joint pains [1] is listed as “can cause severe joint pains”.
In the case of `O=C(N[C@H]1CCS[C@H]2CCC[C@@H](C(=O)O)N2C1=O)[C@@H](S)Cc1ccccc1` [Omapatrilat], the Neprilysin inhibition [2] is listed as 53% and the ACE inhibition [3] is listed as > 90%.
For `CC#CCn1c(N2CCC[C@@H](N)C2)nc2c1c(=O)n(Cc1nc(C)c3ccccc3n1)c(=O)n2C` [linagliptin], the joint pains [1] is listed as “can cause severe joint pains”.
For `CN(C)C(=O)COC(=O)Cc1ccc(OC(=O)c2ccc(NC(=N)N)cc2)cc1` [camostat mesylate, Camostat mesylate], the “inhibition of SARS-COV2 viral entry” value [4] is given as “did not fully inhibit”, the “mortality following SARS-CoV infection” value [5] is given as 30-35% and the “entry of viruses into host cells” value [6] is given as “left some residual entry of viruses”.
In the case of “rhACE2: rhACE2, injected in LPS-induced acute lung injury”, the “lung injury and inflammation” value [7] is listed as “improved lung injury and inflammation”.
In the case of `NCCCC[C@H](N[C@@H](CCc1ccccc1)C(=O)O)C(=O)N1CCC[C@H]1C(=O)O` [Lisinopril], the ACE inhibition [3] is given as 83%.
For `CC(=O)SC[C@@H](Cc1ccccc1)C(=O)NCC(=O)OCc1ccccc1` [Ecadotril], the Neprilysin inhibition [2] is given as 99% and the ACE inhibition [3] is given as 23%.
For `NC(N)=NCCC[C@@H](N)C(=O)N[C@@H](CCCN=C(N)N)C(=O)N1CCC[C@H]1C(=O)N1C[C@H](O)C[C@H]1C(=O)NCC(=O)N[C@@H](Cc1cccs1)C(=O)N[C@@H](CO)C(=O)N1Cc2ccccc2C[C@@H]1C(=O)N1[C@H](C(=O)N[C@@H](CCCN=C(N)N)C(=O)O)C[C@@H]2CCCC[C@@H]21` [Icatibant], the “attenuation of hypotensive effects of acute or chronic valsartan” value [8] is listed as “did not attenuate”.
